Columns and labels:
Experiment in all cases: selective drug sensitivity score (sDSS, relative to normal bone marrow) (sDSS (score)); higher = more potent and effective on the cell line relative to normal bone marrow cells
Conditions in all cases: 72 h
697 = test system: 697
CCRF-CEM = test system: CCRF-CEM
CCRF-HSB2 = test system: CCRF-HSB2
COG-LL-332h = test system: COG-LL-332h
COG-LL-355h = test system: COG-LL-355h
DND-41 = test system: DND-41
HAL-01 = test system: HAL-01
KARPAS-45 = test system: KARPAS-45
KOPN-8 = test system: KOPN-8
LC4-1 = test system: LC4-1
MHH-CALL-2 = test system: MHH-CALL-2
MHH-CALL-4 = test system: MHH-CALL-4
MN-60 = test system: MN-60
MOLT-16 = test system: MOLT-16
NALL-1 = test system: NALL-1
P12-ICHIKAWA = test system: P12-ICHIKAWA
P30-OHKUBO = test system: P30-OHKUBO
RPMI-8402 = test system: RPMI-8402
SUP-B15 = test system: SUP-B15
TMD5 = test system: TMD5
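Also: ALL cell lines in 384-well plates, five doses spanning 10,000-fold, each plate scaled between vehicle and 100 µmol/L benzalkonium chloride controls, sDSS an adapted area-under-curve metric.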

| SMILES | selective drug sensitivity score 697 | selective drug sensitivity score (CCRF-CEM) | selective drug sensitivity score (CCRF-HSB2) | selective drug sensitivity score (COG-LL-332h) | selective drug sensitivity score (COG-LL-355h) | selective drug sensitivity score (DND-41) | selective drug sensitivity score (HAL-01) | selective drug sensitivity score (KARPAS-45) | selective drug sensitivity score (KOPN-8) | selective drug sensitivity score (LC4-1) | selective drug sensitivity score (MHH-CALL-2) | selective drug sensitivity score (MHH-CALL-4) | selective drug sensitivity score (MN-60) | selective drug sensitivity score (MOLT-16) | selective drug sensitivity score (NALL-1) | selective drug sensitivity score (P12-ICHIKAWA) | selective drug sensitivity score (P30-OHKUBO) | selective drug sensitivity score (RPMI-8402) | selective drug sensitivity score (SUP-B15) | selective drug sensitivity score (TMD5) |
| --- | --- | --- | --- | --- | --- | --- | --- | --- | --- | --- | --- | --- | --- | --- | --- | --- | --- | --- | --- | --- |
| Nc1cc(C(F)(F)F)c(-c2cc(N3CCOCC3)nc(N3CCOCC3)n2)cn1 [Buparlisib] (top concentration 10000 nM) | 7.38 | 5.28 | 4.18 | 3.58 | 5.68 | -0.32 | 4.98 | 5.28 | 7.28 | 6.08 | 5.28 | 2.78 | 2.68 | 4.08 | 1.28 | 3.28 | 7.28 | 6.88 | 4.38 | -1.82 |
| Cn1cnc2c(F)c(Nc3ccc(Br)cc3Cl)c(C(=O)NOCCO)cc21 [Selumetinib] (top concentration 10000 nM) | -1 | 2 | 0.8 | -2.3 | 4.7 | 0.4 | 11 | -3.8 | 7 | 0.7 | 8.5 | 4.2 | -4.1 | -3.4 | -4.1 | 0.3 | -2.1 | -4.1 | 5.4 | 3.1 |
| COC(=O)N[C@@H](C)CNc1nccc(-c2cn(C(C)C)nc2-c2cc(Cl)cc(NS(C)(=O)=O)c2F)n1 [Encorafenib] (top concentration 1000 nM) | 8 | 0.2 | 1.8 | 0 | 1.4 | 0 | 0 | 2.6 | 16.2 | 2.9 | 1.7 | 0 | 0 | 1 | 0 | 1.7 | 1.3 | 0 | 0.9 | 0 |
| CCS(=O)(=O)N1CCN(c2ccc(Nc3ncc(C(N)=O)c(NC4CC4)n3)cc2)CC1 [Cerdulatinib] (top concentration 10000 nM) | -3.66 | -6.26 | 1.34 | -4.26 | -7.46 | 2.54 | -11.9 | -2.36 | 3.14 | -9.46 | -8.26 | -5.46 | -11.9 | -2.36 | -8.76 | -4.46 | 3.44 | -5.56 | 0.04 | -4.46 |
| Cc1[nH]nc(C(F)(F)F)c1Cc1sc2c(c1C(=O)N1C[C@](C)(O)CO1)c(=O)n(C)c(=O)n2C(C)C [AZD3965] (top concentration 1000 nM) | 3.6 | 0.3 | 0 | 0 | 0 | 0 | 1 | 0 | 0 | 1.5 | 1.4 | 0 | 0.9 | 0 | 3.8 | 0 | 1.8 | 12.6 | 7.1 | 2.6 |
| Nc1ncnc2c1c(-c1cccc(OCc3ccccc3)c1)cn2[C@H]1C[C@@H](CN2CCC2)C1 [NVP-AEW541] (top concentration 10000 nM) | -2.72 | -2.42 | -0.62 | -1.52 | 5.38 | -1.12 | 0.58 | -0.92 | -2.62 | -0.92 | 3.28 | 0.08 | -3.22 | -2.92 | -0.42 | -2.72 | -2.02 | -1.32 | -2.02 | -7.62 |
| CC(=O)O[C@]1(C(C)=O)CC[C@H]2[C@@H]3C=C(C)C4=CC(=O)CC[C@]4(C)[C@H]3CC[C@@]21C [Megestrol_acetate] (top concentration 10000 nM) | 2.52 | -0.28 | 0.62 | -0.58 | 0.52 | 16.8 | 3.32 | 2.72 | 3.02 | -0.38 | 14.5 | 7.52 | -0.58 | 0.32 | 6.52 | 1.82 | 4.42 | 0.52 | 0.32 | 7.82 |
| CCN(CCO)CCCOc1ccc2c(Nc3cc(CC(=O)Nc4cccc(F)c4)[nH]n3)ncnc2c1 [AZD1152-HQPA] (top concentration 1000 nM) | 16.5 | 16.9 | 23.5 | 21.6 | 8.84 | -1.46 | -4.46 | 24.7 | 12.1 | 23.2 | 6.64 | 2.04 | -2.46 | 27.7 | 9.54 | 19 | 24.7 | 13 | 22.2 | 9.14 |
| C[C@H]1C=C2C(=O)O[C@H]3CC[C@@H](C1)[C@@]23O [Galiellalactone] (top concentration 25000 nM) | 3.26 | 5.86 | 2.76 | 6.06 | 3.66 | 3.86 | 6.06 | 5.16 | 4.16 | 7.16 | 4.16 | -3.84 | 2.46 | 3.36 | -4.54 | 1.86 | 5.26 | 0.06 | 3.46 | 1.46 |

Reference: the supplement of paper PMC8967900
